In patent US20240269139A1, “COMPOUNDS FOR TARGETED PROTEIN DEGRADATION OF KINASES” (DANA-FARBER CANCER INSTITUTE, INC., priority 2020, published 2024):
Like-named read-outs stand apart in the source and are kept apart here.

Legend:
Type in all cases: cell-based
[1] = target: T1, protein kinases (human kinome) (Homo sapiens, UniProt P52789); conditions: HK2 (P52789); experiment wp076
T1 sequence (P52789 1-917): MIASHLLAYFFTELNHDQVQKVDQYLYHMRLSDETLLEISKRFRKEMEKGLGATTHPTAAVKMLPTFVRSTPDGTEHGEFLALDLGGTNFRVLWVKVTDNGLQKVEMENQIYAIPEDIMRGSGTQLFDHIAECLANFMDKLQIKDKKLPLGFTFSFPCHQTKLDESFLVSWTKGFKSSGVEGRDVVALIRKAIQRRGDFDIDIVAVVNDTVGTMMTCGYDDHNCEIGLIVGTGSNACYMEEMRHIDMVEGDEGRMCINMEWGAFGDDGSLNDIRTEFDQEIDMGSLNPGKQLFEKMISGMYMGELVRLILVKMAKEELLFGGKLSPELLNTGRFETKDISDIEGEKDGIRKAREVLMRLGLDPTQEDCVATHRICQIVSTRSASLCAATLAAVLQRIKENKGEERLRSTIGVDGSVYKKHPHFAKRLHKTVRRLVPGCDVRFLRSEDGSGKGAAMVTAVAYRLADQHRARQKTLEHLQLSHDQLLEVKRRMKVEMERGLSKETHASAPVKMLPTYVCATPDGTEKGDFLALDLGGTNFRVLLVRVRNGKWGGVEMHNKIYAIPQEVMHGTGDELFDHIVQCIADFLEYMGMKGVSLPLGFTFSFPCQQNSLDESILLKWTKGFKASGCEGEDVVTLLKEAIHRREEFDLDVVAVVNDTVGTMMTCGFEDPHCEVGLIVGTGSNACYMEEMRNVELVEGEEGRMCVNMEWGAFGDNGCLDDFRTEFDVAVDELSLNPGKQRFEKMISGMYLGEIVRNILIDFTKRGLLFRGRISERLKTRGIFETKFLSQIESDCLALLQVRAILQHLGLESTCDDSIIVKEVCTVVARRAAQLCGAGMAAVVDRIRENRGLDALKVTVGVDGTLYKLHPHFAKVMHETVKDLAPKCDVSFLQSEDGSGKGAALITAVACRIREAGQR

[2] = target: T2, protein kinases (human kinome) (Homo sapiens, UniProt Q9Y616); conditions: experiment wp146; for logFC: IRAK3 (Q9Y616)
T2 sequence (Q9Y616 1-596): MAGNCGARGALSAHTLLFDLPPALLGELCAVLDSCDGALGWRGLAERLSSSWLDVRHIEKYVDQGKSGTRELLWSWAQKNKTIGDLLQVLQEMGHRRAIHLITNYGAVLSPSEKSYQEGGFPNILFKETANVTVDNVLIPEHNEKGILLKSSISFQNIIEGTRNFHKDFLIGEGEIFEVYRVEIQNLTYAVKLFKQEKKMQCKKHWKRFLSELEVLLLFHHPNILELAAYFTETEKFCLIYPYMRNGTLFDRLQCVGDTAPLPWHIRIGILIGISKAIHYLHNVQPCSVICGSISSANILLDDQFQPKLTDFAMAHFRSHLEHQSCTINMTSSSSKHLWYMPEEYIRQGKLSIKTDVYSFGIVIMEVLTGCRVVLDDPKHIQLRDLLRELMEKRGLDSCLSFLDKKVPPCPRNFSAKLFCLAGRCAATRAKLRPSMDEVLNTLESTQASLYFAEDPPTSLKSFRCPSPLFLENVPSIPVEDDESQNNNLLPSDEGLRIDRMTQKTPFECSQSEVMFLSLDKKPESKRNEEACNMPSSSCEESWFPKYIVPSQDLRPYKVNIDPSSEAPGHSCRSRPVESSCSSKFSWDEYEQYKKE

[3] = target: protein kinases (human kinome) (Homo sapiens, UniProt Q5TCX8); conditions: for logFC: MAP3K21 (Q5TCX8); for logFC MAP3K21 (Q5TCX8): direction of change down
protein kinases (human kinome) (Homo sapiens, UniProt Q5TCX8), sequence (Q5TCX8 whole entry): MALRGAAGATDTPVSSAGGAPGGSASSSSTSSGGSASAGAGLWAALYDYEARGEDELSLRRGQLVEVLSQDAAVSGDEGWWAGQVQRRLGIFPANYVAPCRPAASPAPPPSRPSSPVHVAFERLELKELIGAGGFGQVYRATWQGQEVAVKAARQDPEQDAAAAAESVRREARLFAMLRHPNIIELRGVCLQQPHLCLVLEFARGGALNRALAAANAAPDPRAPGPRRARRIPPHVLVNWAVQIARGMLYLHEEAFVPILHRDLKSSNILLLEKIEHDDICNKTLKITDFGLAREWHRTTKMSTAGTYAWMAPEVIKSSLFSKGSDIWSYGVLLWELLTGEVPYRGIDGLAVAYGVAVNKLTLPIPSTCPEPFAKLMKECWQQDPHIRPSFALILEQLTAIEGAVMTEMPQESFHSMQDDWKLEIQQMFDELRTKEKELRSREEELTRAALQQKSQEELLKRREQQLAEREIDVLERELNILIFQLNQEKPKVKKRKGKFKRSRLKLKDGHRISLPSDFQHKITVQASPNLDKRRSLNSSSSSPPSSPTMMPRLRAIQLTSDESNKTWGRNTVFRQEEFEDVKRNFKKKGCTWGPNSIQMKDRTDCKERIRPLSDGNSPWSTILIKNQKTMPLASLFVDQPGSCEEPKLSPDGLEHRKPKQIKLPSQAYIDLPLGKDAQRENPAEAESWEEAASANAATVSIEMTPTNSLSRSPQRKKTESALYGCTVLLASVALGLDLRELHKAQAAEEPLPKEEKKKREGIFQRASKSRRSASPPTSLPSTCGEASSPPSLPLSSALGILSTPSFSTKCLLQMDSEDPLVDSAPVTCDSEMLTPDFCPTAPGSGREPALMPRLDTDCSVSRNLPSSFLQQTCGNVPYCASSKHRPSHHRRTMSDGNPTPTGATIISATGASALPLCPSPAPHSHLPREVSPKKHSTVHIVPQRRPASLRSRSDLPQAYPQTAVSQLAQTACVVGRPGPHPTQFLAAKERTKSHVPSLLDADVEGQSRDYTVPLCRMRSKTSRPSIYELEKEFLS

[4] = target: protein kinases (human kinome) (Homo sapiens, UniProt Q5S007); conditions: for logFC: LRRK2 (Q5S007)
protein kinases (human kinome) (Homo sapiens, UniProt Q5S007), sequence (Q5S007 whole entry): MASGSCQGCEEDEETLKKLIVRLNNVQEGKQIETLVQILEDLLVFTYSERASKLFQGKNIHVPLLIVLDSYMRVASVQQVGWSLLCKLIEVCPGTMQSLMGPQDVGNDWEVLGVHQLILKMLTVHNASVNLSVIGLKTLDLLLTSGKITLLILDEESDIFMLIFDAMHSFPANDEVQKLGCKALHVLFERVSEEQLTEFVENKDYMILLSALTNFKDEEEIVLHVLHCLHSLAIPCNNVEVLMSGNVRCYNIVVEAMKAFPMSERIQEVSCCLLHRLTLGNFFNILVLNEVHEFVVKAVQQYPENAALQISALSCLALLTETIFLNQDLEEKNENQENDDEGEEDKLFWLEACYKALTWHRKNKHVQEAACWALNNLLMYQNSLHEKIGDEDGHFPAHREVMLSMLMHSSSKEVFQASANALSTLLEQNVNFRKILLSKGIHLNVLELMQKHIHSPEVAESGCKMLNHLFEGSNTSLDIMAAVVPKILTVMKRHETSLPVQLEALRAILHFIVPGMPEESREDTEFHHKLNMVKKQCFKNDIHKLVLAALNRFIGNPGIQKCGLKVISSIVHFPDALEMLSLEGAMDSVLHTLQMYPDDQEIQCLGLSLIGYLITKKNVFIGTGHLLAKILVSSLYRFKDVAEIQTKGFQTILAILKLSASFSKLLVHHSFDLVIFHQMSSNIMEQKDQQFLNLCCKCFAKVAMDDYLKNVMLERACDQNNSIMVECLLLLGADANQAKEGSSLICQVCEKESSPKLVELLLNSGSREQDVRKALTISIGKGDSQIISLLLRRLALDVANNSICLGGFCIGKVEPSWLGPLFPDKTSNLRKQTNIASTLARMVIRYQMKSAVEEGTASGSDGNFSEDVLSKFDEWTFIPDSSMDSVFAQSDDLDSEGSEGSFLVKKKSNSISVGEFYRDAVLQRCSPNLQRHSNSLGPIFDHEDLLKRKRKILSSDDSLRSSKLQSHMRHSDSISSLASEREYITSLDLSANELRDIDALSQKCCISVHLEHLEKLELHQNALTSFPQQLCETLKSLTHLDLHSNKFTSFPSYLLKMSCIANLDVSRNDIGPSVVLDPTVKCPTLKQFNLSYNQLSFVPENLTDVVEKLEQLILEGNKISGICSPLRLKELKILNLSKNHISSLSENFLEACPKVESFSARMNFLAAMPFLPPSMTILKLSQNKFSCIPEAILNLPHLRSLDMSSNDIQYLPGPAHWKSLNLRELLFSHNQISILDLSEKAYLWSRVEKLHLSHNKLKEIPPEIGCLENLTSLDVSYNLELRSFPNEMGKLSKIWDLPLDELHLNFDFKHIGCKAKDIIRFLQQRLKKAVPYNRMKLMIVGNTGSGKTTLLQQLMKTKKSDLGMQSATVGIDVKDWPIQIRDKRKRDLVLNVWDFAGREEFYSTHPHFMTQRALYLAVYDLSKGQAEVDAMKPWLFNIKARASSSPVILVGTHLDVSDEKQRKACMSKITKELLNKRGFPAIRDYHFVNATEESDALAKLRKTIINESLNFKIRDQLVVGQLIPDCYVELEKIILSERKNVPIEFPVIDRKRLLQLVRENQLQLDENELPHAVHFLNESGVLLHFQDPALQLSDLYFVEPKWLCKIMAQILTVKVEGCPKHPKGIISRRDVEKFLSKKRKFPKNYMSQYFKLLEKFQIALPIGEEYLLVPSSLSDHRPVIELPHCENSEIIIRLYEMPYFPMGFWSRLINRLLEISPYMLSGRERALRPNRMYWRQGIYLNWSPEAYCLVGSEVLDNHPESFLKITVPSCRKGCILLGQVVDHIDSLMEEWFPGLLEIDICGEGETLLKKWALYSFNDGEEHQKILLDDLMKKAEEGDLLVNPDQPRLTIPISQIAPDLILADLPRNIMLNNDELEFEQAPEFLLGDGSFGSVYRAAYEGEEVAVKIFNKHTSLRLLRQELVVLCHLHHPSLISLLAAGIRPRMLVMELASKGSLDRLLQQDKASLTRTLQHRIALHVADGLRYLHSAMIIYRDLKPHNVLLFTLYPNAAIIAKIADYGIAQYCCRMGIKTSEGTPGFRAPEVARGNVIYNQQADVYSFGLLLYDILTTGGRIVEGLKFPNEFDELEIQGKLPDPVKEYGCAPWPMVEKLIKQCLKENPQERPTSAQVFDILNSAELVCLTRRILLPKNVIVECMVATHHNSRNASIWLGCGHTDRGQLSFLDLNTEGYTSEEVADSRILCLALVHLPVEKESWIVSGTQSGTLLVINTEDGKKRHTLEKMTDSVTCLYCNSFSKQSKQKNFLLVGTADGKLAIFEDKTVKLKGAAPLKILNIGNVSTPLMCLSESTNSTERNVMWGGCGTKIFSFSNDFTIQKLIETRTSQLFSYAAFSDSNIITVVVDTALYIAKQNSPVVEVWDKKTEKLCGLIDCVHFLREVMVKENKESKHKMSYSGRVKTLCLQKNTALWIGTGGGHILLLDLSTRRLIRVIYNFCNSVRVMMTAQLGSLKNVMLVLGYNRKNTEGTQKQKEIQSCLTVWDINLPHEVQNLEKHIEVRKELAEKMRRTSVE

CNC(=O)c1ccccc1Nc1cc(Nc2ccc(N3CCN(CCOCCOCCNC(=O)CNc4cccc5c4C(=O)N(C4CCC(=O)NC4=O)C5=O)CC3)cc2OC)ncc1C(F)(F)F (centres unmarked) [MFH.5.103.1]
logFC [1]: −0.3819

O=C1CCC(N2C(=O)c3cccc(NCCCCCCCCN4CCC(NC(=O)c5[nH]ncc5NC(=O)c5c(Cl)cccc5Cl)CC4)c3C2=O)C(=O)N1 (centres unmarked) [MFH.5.126.1]
logFC [1]: −0.322

Cc1cc(Nc2ncc(Br)c(Nc3cccc(F)c3C(N)=O)n2)ccc1S(=O)(=O)NCCOCCOCCOCCOCCNc1cccc2c1C(=O)N(C1CCC(=O)NC1=O)C2=O (centres unmarked) [TMX.02.174]
logFC [2]: −1.343 | logFC of IRAK3 (Q9Y616) [2]: −1.343

CC(C)S(=O)(=O)c1ccccc1Nc1nc(Nc2ccc(N3CCN(CCOCCOCCNC(=O)CNc4cccc5c4C(=O)N(C4CCC(=O)NC4=O)C5=O)CC3)cc2)ncc1Cl (centres unmarked) [TL12.186]
logFC ([3]; experiment wp131): −0.969 | logFC MAP3K21 (Q5TCX8) ([3]; experiment wp131): −0.969

NC(=O)c1c(F)cccc1Nc1nc(Nc2ccc(S(=O)(=O)NCCOCCOCCOCCOCCNc3cccc4c3C(=O)N(C3CCC(=O)NC3=O)C4=O)cc2)ncc1Br (centres unmarked) [TMX.02.138]
logFC [2]: −1.544 | logFC of IRAK3 (Q9Y616) [2]: −1.544

Cc1ccc(NC(=O)c2cccc(C(F)(F)F)c2)cc1N1Cc2cnc(Nc3ccc(N4CCN(Cc5cn(CCCCCOc6cccc7c6C(=O)N(C6CCC(=O)NC6=O)C7=O)nn5)CC4)nc3)nc2N(C)C1=O (centres unmarked) [DB0646, N-(3-(7-((6-(4-((1-(5-((2-(2,6-Dioxopiperidin-3-yl)-1,3-dioxoisoindolin-4-yl)oxy)pentyl)-1H-1,2,3-triazol-4-yl)methyl)piperazin-1-v)pyridin-3-yl)amino)-1-methyl-2-oxo-1,4-dihydropyrimido[4,5-d]pyrimidin-3(2H)-yl)-4-methylphenyl)-3-(trifluoromethyl)benzamide]
logFC of LRRK2 (Q5S007) ([4]; Experiment wp160, 2 hr): −1.181 | logFC ([4]; experiment wp160, 2 hr): −1.181 | logFC ([4]; experiment wp160, 4 hr): −1.307 | logFC ([4]; experiment wp160, 1 hr): −1.165 | logFC ([4]; experiment wp160, 8 hr): −1.747 | logFC of LRRK2 (Q5S007) ([4]; experiment wp160, 1 hr): −1.165 | logFC of LRRK2 (Q5S007) ([4]; experiment wp160, 4 hr): −1.307 | logFC of LRRK2 (Q5S007) ([4]; experiment wp160, 8 hr): −1.747

CC(C)S(=O)(=O)c1ccccc1Nc1nc(Nc2ccc(N3CCN(CCOCCNC(=O)CNc4cccc5c4C(=O)N(C4CCC(=O)NC4=O)C5=O)CC3)cc2)ncc1Cl (centres unmarked) [SK.3.91]
logFC ([4]; experiment wp160, 1 hr): −0.8447 | logFC of LRRK2 (Q5S007) ([4]; experiment wp160, 1 hr): −0.8447 | logFC ([3]; experiment wp133, 4 hr): −0.4685 | logFC MAP3K21 (Q5TCX8) ([3]; experiment wp133, 4 hr): −0.4685
